Source: paper PMC10418939, “Synthesis, ^123I-Radiolabeling Optimization, and Initial Preclinical Evaluation of Novel Urea-Based PSMA Inhibitors with a Tributylstannyl Prosthetic Group in Their Structures” (International Journal of Molecular Sciences, 2023)
Like-named read-outs stand apart in the source and are kept apart here.

Legend:
[1] = NCr nude mice bearing LNCaP xenografts, cited from earlier work; for accumulation in the liver: 4 h after injection; for accumulation in the kidney: after 4 h
Description: The uptake of [^123I]PSMA-p-IB in normal organs, except in the salivary gland, gastrointestinal tract, and body, were low. […] This value was correlated with PSMA-p-IB that had been ^123I-labeled, which is non-residualizi ...

[2] = In vivo biodistribution in normal mice; parameters: activity in the whole gastrointestinal tract (with contents): unit not given here; conditions: female CD1 mice, i.v. tail vein, 80 pmol, 4 h p.i.
Description: The mice were sacrificed at 4 h post-injection (p.i.) by cervical dislocation. A side-by-side comparison of the biodistribution of [^123I]PSMA-p-IB and [^177Lu]Lu-PSMA-617 in normal mice is shown in Figure 11. Biodistribution of [^123I]PSMA-p-IB at 4 h p.i. in CD1 mice reflects a low level of accumulation in almost all normal organs, except in the salivary gland, gastrointestinal tract, and the rest of the body. There were significant differences between the uptake of [^123I]PSMA-p-IB and [^177Lu]Lu-PSMA-617 in several normal organs. Low accumulation of both ligands was detected in muscle and bone. However, it was determined that the uptake of [^177Lu]Lu-PSMA-617 in muscle (0.1 ± 0.1 %ID/g) was noticeably lower than that of [^123I]PSMA-p-IB (0.2 ± 0.0 %ID/g). […] The activity of [^123I]PSMA-p-IB in blood was 1.3 ± 0.5 %ID/g. […] The activity in the blood for [^123I]PSMA-p-IB experiment was associated with […] labeled with ^123I, which is non-residualizing and is thought to result in the rapid excretion of radiometabolites. Additionally, this ligand lipophilicity might lead it to bind to proteins in the blood. […] This value was clearly higher than the [^177Lu]Lu-PSMA-617 accumulation in the same organ of 0.1 ± 0.0 %ID/g. This [^123I]PSMA-p-IB accumulation could be due to radioiodine catabolites. The activity in the whole gastrointestinal tract (with contents) and small intestine for [^123I]PSMA-p-IB was 12.4 ± 0.8 and 1.1 ± 0.2 %ID/g, respectively. Meanwhile, the activity of [^177Lu]Lu-PSMA-617 in the whole gastrointestinal tract (with contents) and small intestine was 1.2 ± 0.8 and 0.2 ± 0.1 %ID/g, respectively.
Remarkable results were observed whereby the accumulation of [^123I]PSMA-p-IB (0.9 ± 0.1 %ID/g) in the liver was substantially lower than that of [^177Lu]Lu-PSMA-617 (2.3 ± 0.2 %ID/g).
The biodistribution of [^123I]PSMA-p-IB and [^177Lu]Lu-PSMA-617 in normal mice was evaluated in 8 female CD1 mice (2 groups) of 6 weeks of age with an average weight of 31.8 ± 3.6 g. The mice were housed and cared for under standard conditions prior to use. Four mice were each injected intravenously through the tail vein with 40 kBq (80 pmol) of [^123I]PSMA-p-IB in 100 μL PBS with 10% ethanol. The remaining 4 mice were intravenously (i.v.) injected with 130 kBq (80 pmol) of [^177Lu]Lu-PSMA-617 in 100 μL PBS with 1% BSA per mouse. The mice were sacrificed 4 h after injection. Cervical dislocation was employed to sacrifice the anesthetized mice. The blood, tissues, and organs (salivary gland, lung, liver, spleen, small intestine, kidney, muscle, and bone) were excised, collected, and weighed. The ^123I and ^177Lu activities were simultaneously measured using a gamma-counter. The activity uptake was expressed as the percentage of injected activity per gram of organ (%ID/g).
Figure 11 Biodistribution of [^123I]PSMA-p-IB and […] in CD1 mice 4 h post-injection (p.i.). Data for the gastrointestinal tract (including the contents) and the body are presented as the %ID per whole sample. ns indicates p > 0.05, * indicates p ≤ 0.05, ** indicates p ≤ 0.01, *** indicates p ≤ 0.001 and **** indicates p ≤ 0.0001. The comparison study was performed by unpaired 2-tailed t-tests (95% confidence interval).

Compound | accumulation in the liver [1] [%ID/g] | accumulation in the kidney [1] [%ID/g] | accumulation in bone ([2]; n = 4, gamma counter) [%ID/g] | accumulation in salivary glands ([2]; n = 4, gamma counter) [%ID/g] | accumulation in the liver ([2]; n = 4, gamma counter) [%ID/g] | activity in blood ([2]; n = 4, gamma counter) [%ID/g] | activity in small intestine ([2]; n = 4, gamma counter) [%ID/g] | uptake in muscle ([2]; n = 4, gamma counter) [%ID/g] | uptake in the kidney ([2]; n = 4, gamma counter) [%ID/g] | activity in the whole gastrointestinal tract (with contents) ([2]; n = 4, Figure 11 legend: %ID per whole sample)
O=C(O)CC[C@H](NC(=O)N[C@@H](CCCCNCc1ccc([123I])cc1)C(=O)O)C(=O)O [[^123I]MIP-1072] | 2.17 ± 0.67 | 35.7 ± 18.7 |  |  |  |  |  |  |  | 
O=C(O)CC[C@H](NC(=O)N[C@@H](CCCCNC(=O)Nc1ccc([123I])cc1)C(=O)O)C(=O)O [[^123I]MIP-1095] | 7.82 ± 1.01 | 77.5 ± 16.5 |  |  |  |  |  |  |  | 
[^177Lu]Lu-PSMA-617 |  |  | 0.6 ± 0.1 | 0.1 ± 0.0 | 2.3 ± 0.2 | 0.1 ± 0.0 | 0.2 ± 0.1 | 0.1 ± 0.1 | 6.1 ± 3.7 | 1.2 ± 0.8
